Laboratory results taken from US20060166907A1, “Composition for the treatment of nasopharyngeal carcinoma and method of use thereof” (priority 2002, published 2006).
pIC50: −log10 of the molar value. Read-outs that look alike come from different tables or passages of the source. Values belong to the compound of their own block, whether it stands above or below them.

Legend:
C666-1 cells = assay: WST-1 cell viability assay, C666-1 cells; details: for pIC50: read-out: IC 50, NPC cell viability, C666-1 Cells
Description: Cell viability assays were performed in 96 well plastic microplates, either uncoated (C666-1) or coated with Poly HEMA (C15). For each cell line, the number of cells distributed per well was optimized in order to achieve the highest metabolic activity while keeping exponential growth till the end of the test. C15 and C666-1 cells were seeded at 10^5 and 35×10^3/well, respectively, in 150 μl culture medium. Following an overnight pre-incubation culture, serial dilutions of chemotherapy drugs (50 μl; final concentration 50 nM-50 μM) were added in quadruplicate to a […]. At the completion of a 72 h incubation with tested pharmacological agents, cell viability was evaluated using the WST-1 assay (Roche Molecular, France). The WST-1 assay is based on the cleavage of the tetrazolium salt by mitochondrial dehydrogenases. […] Cells were incubated with 10 μl of the WST-1 reagent added to the culture medium, for 3 to 6 h, at 37° C. The plates were subsequently read on an ELISA reader (Dynatech MR7000, Guernsey channel Island, USA) using a 490 nm filter. The mean and standard deviation were determined for quadruplicate samples. For each compound, values falling in the linear part of sigmoid curve were included in a linear regression analysis and were used to estimate the 50% inhibitory concentration (IC 50). Measurement of caspase activity in drug treated NPC cells.
(Ali, H. et al., Chemotherapy in advanced nasopharyngeal cancer. Oncology (Huntingt), 14:1223-1230, 2000.) Their short term cytotoxic effect was assessed in vitro on the C15 and C666-1 cells, using a cell viability assay based on WST reduction. Cultured cells were incubated in the presence of various concentrations of each therapeutic agent for 72 hours.

C15 cells [1] = details: for pIC50: read-out: IC 50, NPC cell viability, C15 Cells, 72 h incubation, WST-1, PolyHEMA-coated plates
[2] = molecular target: T1, FTase from human brain cytosol (Homo sapiens, UniProt P49354+P49356); assay: In vitro FTase assay ([3H]-farnesylation of H-Ras); type: biochemical; details: mean of 2 experiments (lowest-highest); read-out: Enzyme assays IC50 FTase
T1 construct: FTase from human brain cytosol; purchased ABS Reagents, Wilmington, Del; host or cells: human brain cytosol (tissue-derived, not recombinant)
Description: (§1) The effect of Compound A and other drugs on FTase activity was assayed in vitro with FTase from human brain cytosol (ABS Reagents, Wilmington, Del.) as target enzyme and recombinant human H-Ras protein containing the wild type CAAX box (Biomol, Plymouth Meeting, Pa.) as a specific substrate. The incubation mixture (25 μl) for [^3H]-farnesylation contained 50 mM Tris-HCl (pH 7.5), 5 mM dithiothreitol, 20 μM ZnCl2, 40 mM MgCl2, 0.6 μM [^3H]-farnesyl pyrophosphate (22.3 Ci/mmol) (NEN, Boston, Mass.), 4 μM recombinant H-Ras and 10 μg FTase. After 60 min at 37° C., the reaction was stopped by adding 150 μl of absolute ethanol. The mixture was then filtered on Unifilter GF/B microplate (Packard, Rungis, France) and washed 6 times with ethanol prior to scintillation counting. After adding 50 μl of Microscint 0, plates were counted with a Packard Top Count scintillation counter. Drug effects on GGTase I activity were assayed by a similar method with GGTase I from human brain (ABS reagent) as target enzyme and human recombinant H-Ras containing a mutated CAAX box (CVLL)(Biomol). The incubation mixture contained 4 μM recombinant H-Ras, 0.6 μM [^3H]-geranylgeranyl-pyrophosphate (19.3 Ci/mmol) (NEN) and 100 μg of GGTase I. GGTI-286 was used as a positive control for the GGTase-I inhibition assay. Results were expressed as the concentrations of drugs required to inhibit 50% of prenyl-incorporation into the recombinant H-Ras proteins (IC50). Assessment of farnesyl-transferase inhibition in intact cells.

[3] = molecular target: T2, GGTase I from human brain (Homo sapiens, UniProt P49354+P53609); assay: In vitro GGTase I assay ([3H]-geranylgeranylation of H-Ras CVLL); type: biochemical; details: read-out: Enzyme assays IC50 GGTase I
T2 construct: GGTase I from human brain; purchased ABS reagent; host or cells: human brain (tissue-derived, not recombinant)
Description: as §1

CNE1 NPC cell line = details: CNE1, EBV-negative line; cited from earlier work
[4] = tested on: farnesyl-transferase in intact MIAPaca cells; assay: Farnesyl-transferase inhibition in intact cells (H-Ras and N-Ras Western blot); type: cell-based, human; details: 48 h
Description: The effect of Compound A on farnesyl-transferase in intact cells was assayed in MIAPaca cells, a human pancreatic carcinoma cell line which was purchased from the ATCC. Both H-Ras and N-Ras were investigated as reference substrates of the endogenous farnesyl-transferase. Total protein extracts were prepared from MIAPaca cells treated for 48 h with increasing concentrations of Compound A (1-100 nM) along with extracts from untreated cells as a negative control. A positive control was provided by cells treated with mevastatine (30 μM). Mevastatine is an HMG-CoA reductase inhibitor which blocks the synthesis of farnesyl metabolic precursors. Cell extracts were separated by SDS-polyacrylamide gels (15%) and analyzed by Western blot with polyclonal antibodies directed to H-Ras and N-Ras (Santa Cruz, Heidelberg, Germany). Farnesyl-transferase inhibition was assessed indirectly by detection of non-prenylated forms of H-Ras and N-Ras which were slightly shifted toward higher molecular weights and reacted more efficiently with antibodies. Assessment of drug effect on NPC cell viability.

C15 cells [5] = assay: Nuclear morphology, Hoechst 33342 staining, C15 cells; type: cell-based, human; details: 48 h to 72 h, doxorubicin 1 μM, Compound A 5 μM
Text: FIG. 3. […] A: non-treated cells.

C15 cells [6] = assay: PARP cleavage Western blot, C15 cells; type: cell-based, human; details: doxorubicin 1 μM, Compound A 5 μM, combination at 24 h
Description: FIG. 5. […] Corresponding cell lysates (50 μg protein per lane) were separated by 7.5% SDS-PAGE and analyzed by Western Blot with an anti-PARP monoclonal antibody. The cleaved product of PARP was at 85 kD, as shown in the positive-control extract derived from C15 cells treated with the CD95 agonist-antibody 7C11.

C15 cells [7] = assay: TRAF1 cleavage Western blot, C15 cells; type: cell-based, human; details: 24 h, doxorubicin 1 μM, Compound A 5 μM
Description: FIG. 6. Induction of TRAF1-cleavage in C15 cells treated with doxorubicin combined to Compound A. A: Diagram of Fas-mediated TRAF-1-cleavage as reported by Leo et al. (2001). The locations of target peptides used for production of the H-3 monoclonal and H-132 polyclonal antibody are indicated by hatched boxes. The peptide targeted by H-3 was entirely contained in fragment II whereas the peptide targeted by H132 was mainly co-linear with fragment I. B: C15 cells were treated for 24 h with doxorubicin (1 μM), Compound A […] or a combination of both. Control cells were treated with the Fas-agonist antibody 7C11. Cell lysates (50 μg protein per lane) were separated on a 8-16% SDS-PAGE linear gradient prior to Western Blot analysis with anti-TRAF-1 antibodies. Both antibodies detected a main band at 46 kd Additional bands corresponding to fragments of smaller sizes were visible, mainly in samples treated with 7C11 or the combination of doxorubicin and Compound A. In the extracts of cells treated with 7C11, these smaller fragments had apparent molecular weights of 29 kD (H-3) and 24 kD (H-132) which were compatible with the sizes of TRAF1 fragments reported by Leo et al. (2001). Similar results were obtained in three similar experiments.

C15 cells [8] = assay: cells; details: Homo sapiens, 72 h, read-out: IC 50, NPC cell viability, C15 Cells
[9] = tested on: TWO1 and TWO39 NPC cell lines; details: TWO1 and TWO39, EBV-negative lines; cited from earlier work
[10] = mean of 2 experiments (lowest-highest)

SMILES: O=c1[nH]cc(F)c(=O)[nH]1 [5-fluorouracyl]
- sensitivity to short term cytotoxic effect (C666-1 cells): No significant effects
- pIC50 (C666-1 cells; 72 h incubation, WST-1): ≤ 5.30
- sensitivity to short term cytotoxic effect (C15 cells [1]): No significant effects
- pIC50 (C15 cells [1]): ≤ 5.30

- pIC50 [2]: 7.04
- pIC50 [3, 10]: 3.57
SMILES: CC[C@H](C)[C@@H](CN1CSC(C)(C)[C@H]1C(=O)N[C@@H](CCSC)C(=O)OC)NC[C@@H](N)CS [BIM-46068]

SMILES: N.N.[Cl][Pt][Cl] [Cis-platinum, cis-platin]
- pIC50 (C666-1 cells; 72 h incubation, WST-1): 5.30
- enhancement of cytotoxicity by combination with Compound A (C15 cells [1]): not observed
- pIC50 (C15 cells [1]): 6.00
- concentration inducing growth arrest (CNE1 NPC cell line): about 1 μM

- pIC50 [2]: 7.82
- pIC50 [3]: < 4.00
SMILES: COc1cc(Cn2cncc2CC(=O)N2Cc3nc(-c4ccccc4Br)cn3Cc3c(F)cccc32)ccc1C#N [Compound A]
- pIC50 (C666-1 cells; Homo sapiens, C6661, 72 h): 5.00
- concentration giving significant inhibition of H-Ras and N-Ras farnesylation [4]: 50 nM
- nuclear apoptosis morphological changes (C15 cells [5]): much less apparent
- PARP cleavage (C15 cells [6]): Moderate PARP cleavage
- TRAF1 cleavage (C15 cells [7]): no modifications
- pIC50 (C15 cells [8]): 5.00

SMILES: COc1cccc2c1C(=O)c1c(O)c3c(c(O)c1C2=O)C[C@@](O)(C(=O)CO)C[C@@H]3O[C@H]1C[C@H](N)[C@H](O)[C@H](C)O1 [Doxorubicin, doxorubicin]
- pIC50 (C666-1 cells; Homo sapiens, C6661, 72 h): 6.70
- nuclear apoptosis morphological changes (C15 cells [5]): much less apparent
- PARP cleavage (C15 cells [6]): Moderate PARP cleavage
- TRAF1 cleavage (C15 cells [7]): no modifications
- pIC50 (C15 cells [8]): 6.82

- pIC50 [2]: 7.52
- pIC50 [3, 10]: 6.50
SMILES: COC(=O)[C@H](CCSC)NC(=O)c1ccc(NC[C@@H](N)CS)cc1-c1ccccc1 [FTI-277]

- pIC50 [2]: 6.44
- pIC50 [3, 10]: 6.94
SMILES: COC(=O)[C@H](CC(C)C)NC(=O)c1ccc(NC[C@@H](N)CS)cc1-c1ccccc1 [GGTI-286]

SMILES: CC(=O)O[C@H]1C(=O)[C@@]2(C)[C@H]([C@H](OC(=O)c3ccccc3)[C@]3(O)C[C@H](OC(=O)[C@H](O)[C@@H](NC(=O)c4ccccc4)c4ccccc4)C(C)=C1C3(C)C)[C@]1(OC(C)=O)CO[C@@H]1C[C@@H]2O [Taxol]
- sensitivity to short term cytotoxic effect (C666-1 cells): highly sensitive
- pIC50 (C666-1 cells; Homo sapiens, C6661, 72 h): 6.70
- sensitivity to short term cytotoxic effect (C15 cells [1]): totally resistant
- pIC50 (C15 cells [8]): ≤ 4.60
- effect on NPC cell lines [9]: induce growth arrest and/or apoptosis
